Test results from ChEMBL document CHEMBL5126638, “Resin Glycosides from Operculina hamiltonii and Their Synergism with Vinblastine in Cancer Cells” (J Nat Prod, 2022).
Active and inactive are the calls of the source. The calls are words filed in the database; no cut-off is given here.

What was measured:
Assay type in all cases: functional, cell-based
MCF7 [1] = experiment: Cytotoxicity in human MCF7 cells assessed as growth inhibition level after 48 hrs by SRB assay; settings: MCF7, 48 h
MCF7-VP [2] = experiment: Cytotoxicity in human MCF7/Vin cells assessed as growth inhibition level after 48 hrs by SRB assay
HeLa [3] = experiment: Cytotoxicity in human HeLa cells assessed as growth inhibition level after 48 hrs by SRB assay
HCT-116 [4] = experiment: Cytotoxicity in human HCT-116 cells assessed as growth inhibition level after 48 hrs by SRB assay; settings: HCT-116, 48 h
MCF7 [5] = experiment: Enhancement of 0.003 uM vinblastine-induced cytotoxicity in human MCF7 cells assessed as growth inhibition level after 48 hrs by SRB assay; settings: MCF7, 48 h
MCF7-VP [6] = experiment: Enhancement of 0.003 uM vinblastine-induced cytotoxicity in human MCF7/Vin cells assessed as growth inhibition level after 48 hrs by SRB assay
HeLa [7] = experiment: Enhancement of 0.003 uM vinblastine-induced cytotoxicity in human HeLa cells assessed as growth inhibition level after 48 hrs by SRB assay
HCT-116 [8] = experiment: Enhancement of 0.003 uM vinblastine-induced cytotoxicity in human HCT-116 cells assessed as growth inhibition level after 48 hrs by SRB assay; settings: HCT-116, 48 h
MCF7 [9] = experiment: Enhancement of 0.4 uM vinblastine-induced cytotoxicity in human MCF7 cells assessed as growth inhibition level at 25 uM after 48 hrs by Microscopic visualization based assay

| Compound | IC50 (MCF7 [1]) [µM] | IC50 (MCF7-VP [2]) [µM] | IC50 (HeLa [3]) [µM] | IC50 (HCT-116 [4]) [µM] | IC50 (MCF7 [5]) [µM] | IC50 (MCF7-VP [6]) [µM] | IC50 (HeLa [7]) [µM] | IC50 (HCT-116 [8]) [µM] | Activity (MCF7 [9]) |
| --- | --- | --- | --- | --- | --- | --- | --- | --- | --- |
| CC[C@]1(O)C[C@@H]2CN(CCc3c([nH]c4ccccc34)[C@@](C(=O)OC)(c3cc4c(cc3OC)N(C)[C@H]3[C@@](O)(C(=O)OC)[C@H](OC(C)=O)[C@]5(CC)C=CCN6CC[C@]43[C@@H]65)C2)C1 [VINBLASTINE] | 0.035 | 1.63 | 0.004 | 0.3 |  |  |  |  |  |
| CCCCCCCCCCCC(=O)O[C@H]1[C@H](O[C@@H]2[C@@H](O)[C@@H](O)[C@H](O[C@H]3[C@H](O[C@@H](CCCCC)CCCCCCCCCC(=O)OC)O[C@H](C)[C@H](O)[C@@H]3O)O[C@H]2C)O[C@@H](C)[C@H](O[C@@H]2O[C@@H](C)[C@H](O)[C@@H](O)[C@H]2O)[C@H]1O[C@@H]1O[C@H](CO)[C@@H](O)[C@H](O)[C@H]1O | > 25 | > 25 | > 25 | > 25 | 4.4 | 3.1 | 14.6 | 6.8 | Active |
| CCCCCCCCCCCC(=O)O[C@H]1[C@H](O[C@@H]2[C@H]3OC(=O)CCCCCCCCC[C@H](CCCCC)O[C@@H]4O[C@H](C)[C@H](O)[C@H](O)[C@H]4O[C@H](O[C@H]2C)[C@@H]3O)O[C@@H](C)[C@H](O[C@@H]2O[C@@H](C)[C@H](O)[C@@H](O)[C@H]2O)[C@H]1O[C@@H]1O[C@H](CO)[C@@H](O)[C@H](O)[C@H]1O | > 25 | > 25 | > 25 | > 25 | 15.2 | 18.4 | 26.6 | 17.7 | Active |
| CCCCCCCCCC(=O)O[C@H]1[C@H](O[C@@H]2[C@H]3OC(=O)CCCCCCCCC[C@H](CCCCC)O[C@@H]4O[C@H](C)[C@H](O)[C@H](O)[C@H]4O[C@H](O[C@H]2C)[C@@H]3O)O[C@@H](C)[C@H](O[C@@H]2O[C@@H](C)[C@H](O)[C@@H](O)[C@H]2O)[C@H]1O[C@@H]1O[C@H](CO)[C@@H](O)[C@H](O)[C@H]1O | > 25 | > 25 | > 25 | > 25 | 12.3 | 19.4 | 23.8 | 12.8 | Active |
| CCCCCCCCCC(=O)O[C@H]1[C@H](O[C@@H]2[C@@H](O)[C@@H](O)[C@H](O[C@H]3[C@H](O[C@@H](CCCCC)CCCCCCCCCC(=O)OC)O[C@H](C)[C@H](O)[C@@H]3O)O[C@H]2C)O[C@@H](C)[C@H](O[C@@H]2O[C@@H](C)[C@H](O)[C@@H](O)[C@H]2O)[C@H]1O[C@@H]1O[C@H](CO)[C@@H](O)[C@H](O)[C@H]1O | > 25 | > 25 | > 25 | > 25 | 4.7 | 10 | 26.1 | 8.6 | Active |
| COc1cc2c(c(OC)c1OC)-c1ccc(OC)c(=O)cc1[C@@H](NC(C)=O)CC2 [COLCHICINE] |  | 1.57 | 0.006 | 0.08 |  |  |  |  |  |
